In ChEMBL document CHEMBL4364307, “2-(phenylthio)ethylidene derivatives as anti-Trypanosoma cruzi compounds: Structural design, synthesis and antiparasitic activity” (Eur J Med Chem, 2019):
Activity calls are given as the source filed them. The calls are words filed in the database; no cut-off is given here.

Legend:
[1] = Cytotoxicity against Balb/c mouse splenocyte assessed as reduction in cell viability after 24 hrs by [3H]thymidine incorporation based beta scintillation counting analysis; conditions: mouse splenocytes
[2] = Selectivity index, ratio of maximum non-toxic concentration for Balb/c mouse splenocyte to IC50 for bloodstream form of Trypanosoma cruzi trypomastigotes; type: toxicity; conditions: mouse splenocytes, read-out: Selectivity Index
[3] = molecular target: Cruzipain (Trypanosoma cruzi) (UniProt P25779); test: Inhibition of Trypanosoma cruzi cruzain at 100 uM using Z-FR-AMC as substrate preincubated for 10 mins followed by substrate addition and measured for 5 mins by fluorimetric analysis relative to control
Chain of Cruzipain (Trypanosoma cruzi) (P25779 123-467 limits assumed): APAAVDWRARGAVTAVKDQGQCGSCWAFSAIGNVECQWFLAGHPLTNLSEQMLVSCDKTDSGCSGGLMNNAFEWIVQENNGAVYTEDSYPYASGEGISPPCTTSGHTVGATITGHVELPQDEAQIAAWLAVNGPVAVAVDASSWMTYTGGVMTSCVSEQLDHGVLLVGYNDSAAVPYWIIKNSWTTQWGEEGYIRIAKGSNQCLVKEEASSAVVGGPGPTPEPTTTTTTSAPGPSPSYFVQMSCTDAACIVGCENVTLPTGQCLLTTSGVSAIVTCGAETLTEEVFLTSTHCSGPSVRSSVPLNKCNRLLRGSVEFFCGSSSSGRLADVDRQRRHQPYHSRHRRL

Trypanosoma cruzi [4] = test: Antitrypanosomal activity against Trypanosoma cruzi Dm28c epimastigotes after 5 days by Neubauer chamber method; type: functional, organism-based; conditions: 120 h
Trypanosoma cruzi [5] = test: Antitrypanosomal activity against bloodstream form of Trypanosoma cruzi trypomastigotes after 24 hrs by Neubauer chamber method; type: functional, organism-based
Trypanosoma cruzi [6] = test: Induction of apoptosis in bloodstream form of Trypanosoma cruzi trypomastigotes at 1.1 mM after 24 hrs by annexin V-FITC/propidium iodide staining based flow cytometry relative to control; type: functional, organism-based
Trypanosoma cruzi [7] = test: Induction of apoptosis in bloodstream form of Trypanosoma cruzi trypomastigotes at 0.25 mM after 24 hrs by annexin V-FITC/propidium iodide staining based flow cytometry relative to control; type: functional, organism-based
Trypanosoma cruzi [8] = test: (§1) Antiparasitic activity against bloodstream form of Trypanosoma cruzi Y strain trypomastigotes infected in Balb/c mouse peritoneal macrophage assessed as reduction in number of amastigotes/100 macrophages at 20 uM incubated for 6 hrs followed by replacement of fresh medium measured after 3 days by Giemsa-staining based optical microscopic analysis; type: functional, organism-based
Trypanosoma cruzi [9] = test: Antiparasitic activity against bloodstream form of Trypanosoma cruzi Y strain trypomastigotes infected in Balb/c mouse peritoneal macrophage incubated for 6 hrs followed by replacement of fresh medium measured after 3 days by Giemsa-staining based optical microscopic analysis; type: functional, organism-based
Trypanosoma cruzi [10] = test: as §1, with “percent” for “number”, “infected” for “amastigotes/100”; type: functional, organism-based
Trypanosoma cruzi [11] = test: Induction of morphological changes in Trypanosoma cruzi bloodstream trypomastigotes assessed as appearance of atypical vacuoles in cytoplasm at 3 uM after 24 hrs by TEM analysis; type: functional, organism-based
Trypanosoma cruzi [12] = test: Induction of morphological changes in Trypanosoma cruzi bloodstream trypomastigotes assessed as appearance myelin figures in cytoplasm at 3 uM after 24 hrs by TEM analysis; type: functional, organism-based
Trypanosoma cruzi [13] = test: Induction of morphological changes in Trypanosoma cruzi bloodstream trypomastigotes assessed as disorganization of golgi complex at 3 uM after 24 hrs by TEM analysis; type: functional, organism-based
Trypanosoma cruzi [14] = test: Induction of morphological changes in Trypanosoma cruzi bloodstream trypomastigotes assessed as appearance of myelin figures in mitochondria at 3 uM after 24 hrs by TEM analysis; type: functional, organism-based
Trypanosoma cruzi [15] = test: Antiparasitic activity against bloodstream form of Trypanosoma cruzi Y strain trypomastigotes infected in Balb/c mouse peritoneal macrophage at 20 uM incubated for 2 hrs followed by extracellular parasites wash out and measured after 2 hrs by Giemsa staining-based optical microscopic analysis
Trypanosoma cruzi [16] = test: Antitrypanosomal activity against Trypanosoma cruzi Y strain epimastigotes after 15 hrs by hemocytometer based cell counting method; type: functional, organism-based
Cruzipain = Cruzipain (Trypanosoma cruzi, UniProt P25779); test: Inhibition of Trypanosoma cruzi cruzain using Z-FR-AMC as substrate preincubated for 10 mins followed by substrate addition and measured for 5 mins by fluorimetric analysis
Chain of Cruzipain (P25779 whole entry): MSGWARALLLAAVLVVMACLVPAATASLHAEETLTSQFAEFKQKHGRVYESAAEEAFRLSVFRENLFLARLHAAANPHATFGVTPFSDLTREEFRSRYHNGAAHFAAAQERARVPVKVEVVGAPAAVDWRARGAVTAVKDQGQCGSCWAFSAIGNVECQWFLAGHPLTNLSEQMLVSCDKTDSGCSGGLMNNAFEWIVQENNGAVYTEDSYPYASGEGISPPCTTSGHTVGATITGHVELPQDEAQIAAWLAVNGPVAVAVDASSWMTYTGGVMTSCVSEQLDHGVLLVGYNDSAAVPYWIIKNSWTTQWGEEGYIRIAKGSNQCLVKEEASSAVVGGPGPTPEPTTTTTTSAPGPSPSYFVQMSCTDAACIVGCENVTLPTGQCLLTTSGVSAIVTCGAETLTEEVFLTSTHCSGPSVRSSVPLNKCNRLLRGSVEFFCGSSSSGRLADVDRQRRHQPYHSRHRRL

Row | inhibition [3] | IC50 (Trypanosoma cruzi [4]) | IC50 (Trypanosoma cruzi [5]) | SMILES | MNTC at 24 h [1] | selectivity ratio [2] | further results
1 |  | 62.7 µM | 18.5 µM | COc1ccc(-c2csc(N/N=C/CSc3ccccc3)n2)cc1 | > 281 µM | > 15.2 | 
2 | 37.4% | 6.1 µM | 8.2 µM | NC(=S)N/N=C/CSc1cc(Cl)ccc1Cl | 85 µM | 10.4 | 
3 | 62.9% | 56.5 µM | 15.2 µM | Clc1ccc(-c2csc(N/N=C/CSc3ccccc3)n2)cc1Cl | 127 µM | 8.3 | 
4 | 31.4% | 9.6 µM |  | Cc1ccc(SC/C=N/NC(N)=S)cc1 | 4.2 µM |  | 
5 |  | 49.8 µM |  | C/C(COc1ccccc1)=N\Nc1nc(-c2ccc(Br)cc2)cs1 |  |  | 
6 | 13.9% | 15.3 µM | 6.1 µM | Cc1ccccc1SC/C=N/NC(N)=S | 41.8 µM | 6.9 | 
7 | 27.5% | 6.1 µM | 5.7 µM | NC(=S)N/N=C/CSc1ccc(F)cc1 | 20.5 µM | 3.6 | 
8 | 87.6% | 6.2 µM | 5.9 µM | Cc1ccc(C)c(SC/C=N/NC(N)=S)c1 | < 3.9 µM | 0.7 | IC50 (Cruzipain): 3.3 µM; Activity (Trypanosoma cruzi [6]): Active; Activity (Trypanosoma cruzi [7]): Active
9 | 67.2% | 7.9 µM | 4.1 µM | Clc1ccc(-c2csc(N/N=C/CSc3ccccc3)n2)c(Cl)c1 | 127 µM | 30.9 | Activity (Trypanosoma cruzi [6]): Active; Activity (Trypanosoma cruzi [7]): Active
10 | 7% | 5.4 µM | 14.3 µM | Brc1ccc(-c2csc(N/N=C/CSc3ccccc3)n2)cc1 | > 239 µM | > 16.7 | 
11 |  | 4 µM | 3.9 µM | C/C(COc1ccccc1)=N\Nc1nc(-c2ccncc2)cs1 |  |  | 
12 |  | 59.4 µM | 5.2 µM | C(/CSc1ccccc1)=N\Nc1nc(-c2ccccc2)cs1 | 154 µM | 29.5 | Activity (Trypanosoma cruzi [6]): Active; Activity (Trypanosoma cruzi [7]): Active

Further lines, the compound ahead of its results:

Row | SMILES | inhibition [3] | IC50 (Trypanosoma cruzi [4]) | IC50 (Trypanosoma cruzi [5]) | MNTC at 24 h [1] | selectivity ratio [2] | further results
13 | NC(=S)N/N=C/CSc1ccc(Cl)cc1 | 25.2% | 6.2 µM | 14.1 µM | < 3.8 µM | 0.3 | 
14 | NC(=S)N/N=C/CSc1ccc(Br)cc1 | 16.6% | 15.4 µM | 6.6 µM | < 3.3 µM | 0.5 | Activity (Trypanosoma cruzi [6]): Active; Activity (Trypanosoma cruzi [7]): Active
15 | COc1ccc(SC/C=N/NC(N)=S)cc1 | 34.6% | 32.1 µM | 39.7 µM | < 3.9 µM | 0.1 | 
16 | Cc1cccc(SC/C=N/NC(N)=S)c1 | 43.4% | 6.3 µM | 1.8 µM | < 4.2 µM | 2.3 | Activity (Trypanosoma cruzi [6]): Active; Activity (Trypanosoma cruzi [7]): Active
17 | NC(=S)N/N=C/CSc1ccccc1 | 42.1% | 102 µM | 89 µM |  | 0.25 | 
18 | C/C(COc1ccccc1)=N\Nc1nc(-c2cccc([N+](=O)[O-])c2)cs1 |  | 4 µM | 3.8 µM |  |  | 
19 | Cc1ccc(-c2csc(N/N=C/CSc3ccccc3)n2)cc1 | 11.9% | 9.4 µM | 5.7 µM | 147 µM | 25.8 | Activity (Trypanosoma cruzi [8]): Active; IC50 (Trypanosoma cruzi [9]): 18.8 µM; Activity (Trypanosoma cruzi [10]): Active; Activity (Trypanosoma cruzi [6]): Active; Activity (Trypanosoma cruzi [7]): Active
20 | O=C(Cn1ccnc1[N+](=O)[O-])NCc1ccccc1 [BENZNIDAZOLE] |  |  | 6.2 µM |  | 15.5 | 
21 | Cc1sc(N/N=C/CSc2ccccc2)nc1-c1ccc(Br)cc1 | 27% | 4.1 µM | 2.6 µM | > 247 µM | > 95.1 | Activity (Trypanosoma cruzi [8]): Active; Activity (Trypanosoma cruzi [11]): Active; Activity (Trypanosoma cruzi [12]): Active; Activity (Trypanosoma cruzi [13]): Active; IC50 (Trypanosoma cruzi [9]): 10.2 µM; Activity (Trypanosoma cruzi [14]): Active; Activity (Trypanosoma cruzi [10]): Active; Activity (Trypanosoma cruzi [6]): Active; Activity (Trypanosoma cruzi [7]): Active; inhibition (Trypanosoma cruzi [15]): Active
22 | CC(C)C1S/C(=N/N=C/CSc2ccccc2)NC1=O (stereo not drawn) |  |  |  |  |  | IC50 (Trypanosoma cruzi [16]): 0.3 µM
23 | NC(=S)N/N=C/CSc1ccccc1Cl | 46% | 47.7 µM | 6.2 µM | < 3.8 µM | 0.6 | 
24 | O=[N+]([O-])c1ccc(-c2csc(N/N=C/CSc3ccccc3)n2)cc1 | 18.9% | 16 µM | 8.4 µM | 67.5 µM | 8 | Activity (Trypanosoma cruzi [8]): Active; IC50 (Trypanosoma cruzi [9]): 19.3 µM; Activity (Trypanosoma cruzi [10]): Active
25 | NC(=S)N/N=C/CSc1cccc(Cl)c1 | 75.9% | 5.5 µM | 14.1 µM | 96.2 µM | 6.8 | IC50 (Cruzipain): 19 µM
26 | O=[N+]([O-])c1cccc(-c2csc(N/N=C/CSc3ccccc3)n2)c1 | 16.2% | 8.4 µM | 19.2 µM | 135 µM | 7 | 
27 | Clc1ccc(-c2csc(N/N=C/CSc3ccccc3)n2)cc1 | 17.6% | 6.8 µM | 4.1 µM | > 278 µM | > 67.8 | Activity (Trypanosoma cruzi [8]): Active; IC50 (Trypanosoma cruzi [9]): 7.88 µM; Activity (Trypanosoma cruzi [10]): Active; Activity (Trypanosoma cruzi [6]): Active; Activity (Trypanosoma cruzi [7]): Active; inhibition (Trypanosoma cruzi [15]): Active
28 | Fc1ccc(-c2csc(N/N=C/CSc3ccccc3)n2)cc1 | 22.9% |  | 41.7 µM | > 291 µM | > 7 | 
